From PubChem BioAssay (NCI)
“And” between values parts separate entries of the source, which are not always exact repeats. Identical values can stand only once.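 Following 48 hours of exposure in 96-well plates, responses at five concentrations were used to interpolate endpoints linearly. Here, GI50 denotes the concentration required for 50% inhibition of growth. TGI marks complete inhibition of growth.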

Assays:
Assay in all cases: NCI tumour cell line growth inhibition, 48 h
[1] = test system: DMS 114 small cell lung
[2] = test system: HOP-18 NSCLC
[3] = test system: KM20L2 colon
[4] = test system: LXFL 529 NSCLC
[5] = test system: M19-MEL melanoma
[6] = test system: RXF-631 renal
[7] = test system: SNB-78 CNS
[8] = test system: XF 498 CNS
[9] = test system: MDA-N
[10] = test system: P388/ADR leukemia
[11] = test system: SN12K1 renal

Compound	TGI [1] [µM]	TGI [2] [µM]	TGI [3] [µM]	TGI [4] [µM]	TGI [5] [µM]	TGI [6] [µM]	TGI [7] [µM]	TGI [8] [µM]	TGI [9]	also measured
COc1ccccc1NC(=O)C1=C(C)NC(C)=C(C(=O)Nc2ccccc2OC)C1c1cccc2c1OCO2	> 100	> 100	> 100	> 100	> 100	> 100	–	–	–	–
COc1cc2c(c(OC)c1OC)-c1ccc(SC)c(=O)cc1C(CC(=O)Oc1cccc(C#N)c1)C2 (stereo unspecified)	–	> 100	0.443	> 100	> 100	–	> 100	2.23	–	–
CCOC(=O)[C@H]1Nc2ccc(Cl)cc2[C@H]2c3ccccc3O[C@H]21	> 100	> 100	> 100	> 100	> 100	> 100	> 100	> 100	–	–
CCOC(=O)/C(=C\c1ccc(F)cc1)C(C)=O	–	–	–	–	–	–	–	–	> 100 µM	–
COC(=O)C1=Cc2c(cc(OC)c(OC)c2OC)[C@H](c2ccc(OC)c(OC)c2OC)C1C(=O)OC (stereo partly specified)	> 100	–	> 100	> 100	> 100	> 100	> 100	–	–	–
Cc1cc2c(cc1Br)C1(C)CCC(C)C1(C)O2 (stereo unspecified)	52	> 100	> 100	> 100	70.1	–	> 100	50.6	–	–
Clc1cc(Cl)cc(Nc2nc3ccccc3nc2-c2cccs2)c1	–	88.8	–	> 100	88.2	31.8	> 100	73.2	–	–
CN(C)S(=O)(=O)c1ccc(Nc2ccc(O)c3c2C(=O)c2c([N+](=O)[O-])ccc(O)c2C3=O)cc1	–	–	–	–	–	–	–	–	> 100 µM	–
C[Si]12OCCCN(CCO1)CCO2	> 100	–	–	> 100	> 100	–	> 100	–	–	–
CO/C(=N\N=C\c1cccc(C(F)(F)F)c1)c1ccncc1	–	–	–	–	–	–	–	–	5.17 µM and 32.5 µM	GI50 [9]: 3.25 µM
Cc1ccc2nc(N/N=C/c3cccc(C)n3)cc(C)c2c1	–	–	–	–	–	–	–	–	32.5 µM	–
O=C(NC1(C(=O)O)CC1c1ccccc1)c1ccccc1 (stereo unspecified)	–	–	–	–	–	–	–	–	> 100 µM	–
O=C(O)CCCNS(=O)(=O)c1ccc2ccccc2c1	–	> 100	> 100	> 100	> 100	> 100	–	> 100	–	–
CC1=CC2CC(C)C1(C)CCc1ccoc12 (stereo unspecified)	> 100	> 100	> 100	> 100	> 100	> 100	> 100	> 100	–	–
NC1=C(Cl)C(=O)c2ccccc2C1=O	13.4	22	28	25.2	1.76	–	> 63.3	24.5	3.19 µM	–
CC(=O)O[C@H]1CC[C@@]2(C)C(=CC[C@@H]3C2CC[C@]2(C)Nc4[nH]ncc4CC32)C1 (stereo partly specified)	34.2	–	85.2	36.4	60.1	34.7	> 100	34.2	–	–
c1cncc(CNc2ncn[nH]2)c1	–	–	–	–	–	–	–	–	> 100 µM	–
O=C(O)c1ccc(C2C3C=CC(C3)C2[N+](=O)[O-])cc1 (stereo unspecified)	> 100	–	> 100	> 100	> 100	> 100	> 100	> 100	–	–
CC1CC2(CCC1OCc1ccccc1)OCCO2 (stereo unspecified)	> 100	–	–	> 100	> 100	–	> 100	> 100	–	–

Compound	TGI [1] [µM]	TGI [2] [µM]	TGI [3] [µM]	TGI [4] [µM]	TGI [5] [µM]	TGI [6] [µM]	TGI [7] [µM]	TGI [8] [µM]	TGI [9]	also measured
N#C[C@H]1Nc2ccccc2[C@@H](O)C1O (stereo partly specified)	–	–	–	–	–	–	–	–	> 100 µM	–
CN(CCN(C)C(=O)CCOS(C)(=O)=O)C(=O)CCOS(C)(=O)=O	> 100	> 100	> 100	> 100	–	–	> 100	> 100	–	–
COc1ccccc1NC(=O)CC(=O)NNCC(=O)Nc1nnc(-c2ccccc2)o1	> 100	–	> 100	> 100	> 100	> 100	> 100	> 100	–	–
CC(C)=CC1CC(C)C2(CCC3(C)CC4C(C(=O)CC4(C)O)/C(C=O)=C\CC32)O1 (stereo unspecified)	–	–	–	–	–	–	–	–	0.258 µM	–
Cn1c(=O)oc2cc(C3CCC(=O)N3Cc3ccc(Cl)cc3)ccc21 (stereo unspecified)	> 100	> 100	> 100	> 100	> 100	–	> 100	> 100	–	–
COc1ccc2c(c1)CCCC1C3=NCCC3(C)CSC21 (stereo unspecified)	> 100	> 100	72.7	> 100	> 100	–	> 100	> 100	–	–
NC(=O)c1c2c(cc3c(=O)c4ccccc4[nH]c13)CCCC2	> 100	> 100	> 100	> 100	> 100	> 100	–	> 100	–	–
COC(=O)[C@]12CC=C3O[C@@H]4OC5(CCCCC5)O[C@@H]4[C@H]3C1C(=O)C=CC2=O (stereo partly specified)	33.7	32.6	37.5	23.8	30.9	–	37.2	20	33.6 µM	TGI [10]: 10.5 µM; TGI [11]: 31.4 µM
Cc1cc(NC(=O)NC(=O)c2ccccc2NC(=O)CN)ccc1Oc1ncc(Br)cn1	75	–	18.6	75	–	–	–	75	1.1 µM and 0.178 µM	GI50 [9]: 0.0271 µM
CCOC(=O)c1cnc2cc3cccccc3n2c1=O	> 100	–	> 100	> 100	–	–	> 100	–	–	–
CCC[CH2][Sn]1([CH2]CCC)[O]C(=O)CN=Cc2ccccc2[O]1	0.295	1.36	2.26	0.236	1.15	0.324	1.34	0.282	–	GI50 [1]: 0.134 µM; GI50 [2]: 0.337 µM; GI50 [3]: 1.02 µM; GI50 [4]: 0.102 µM; GI50 [5]: 0.249 µM; GI50 [6]: 0.182 µM; GI50 [7]: 0.232 µM; GI50 [8]: 0.137 µM
NC(=O)NCCSC1CCCCC1O (stereo unspecified)	–	–	–	–	–	–	–	–	> 100 µM	–
O=CN1CCN(C=S)CC1	> 100	–	> 100	> 100	> 100	> 100	> 100	> 100	–	–
CCCCCCCCCCCCCCCCn1cc[n+](Cc2ccccc2)c1C	–	–	–	–	–	–	–	–	1.32 µM	GI50 [9]: 0.328 µM
CCOC(=O)C(=O)Nc1ccc(Cl)c(C(F)(F)F)c1	> 100	> 100	> 100	> 100	> 100	> 100	> 100	–	–	–
COc1ccc(C(=O)CC(c2ccc(OC)c(OC)c2)c2c(O)c3ccccc3oc2=O)cc1OC (stereo unspecified)	–	–	–	–	–	–	–	–	> 100 µM	–
Cc1cc(N=C2C=C(Nc3cc(C)on3)C(=O)c3ccccc32)no1	73.7	92.2	> 100	> 100	8.12	> 100	68.1	> 100	4.02 µM	–
CC(=O)NC1=C(NCc2ccc(Cl)cc2)C(=O)c2ccccc2C1=O	–	–	> 50	13	11.2	–	24.1	4.74	–	–
CN1CCC(n2[nH]c(-c3ccccc3)c(Cc3ccccc3)c2=O)CC1	–	–	–	–	–	–	–	–	> 100 µM	–
